Results from ChEMBL document CHEMBL1201862, “PubChem BioAssay data set” (2004).
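Following 48 hours of exposure in 96-well plates, responses at five concentrations were used to interpolate endpoints linearly. GI50 = concentration required for 50% inhibition of growth.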 Activity calls are given as the source filed them. Rule as the data show it: active = GI50 up to about 1.1 µM and inactive = higher.

How the values were obtained:
Assay in all cases: DTP human tumour cell line panel, 48 h
[1] = test system: SR
[2] = test system: M14
[3] = test system: UACC-62
[4] = test system: CAKI-1
[5] = test system: SW-620
[6] = test system: TK-10
[7] = test system: HCT-116
[8] = test system: A498
[9] = test system: UO-31
[10] = test system: K562
[11] = test system: MOLT-4
[12] = test system: SNB-75
[13] = test system: LOX IMVI
[14] = test system: CCRF-CEM
[15] = test system: Hs-578T
[16] = test system: Malme-3M
[17] = test system: OVCAR-5
[18] = test system: BT-549
[19] = test system: KM12
[20] = test system: OVCAR-3
[21] = test system: HOP-62
[22] = test system: NCI-H23
[23] = test system: A549
[24] = test system: IGROV-1
[25] = test system: HOP-92
[26] = test system: MCF7
[27] = test system: MDA-MB-435
[28] = test system: HT-29
[29] = test system: U-251
[30] = test system: SF-268
[31] = test system: SK-MEL-5
[32] = test system: SK-MEL-2
[33] = test system: SF-295
[34] = test system: OVCAR-8
[35] = test system: NCI-H460
[36] = test system: SK-OV-3
[37] = test system: DU-145
[38] = test system: COLO 205
[39] = test system: SNB-19
[40] = test system: RPMI-8226
[41] = test system: 786-0
[42] = test system: SF-539
[43] = test system: PC-3
[44] = test system: NCI-H226
[45] = test system: HCT-15
[46] = test system: T47D
[47] = test system: UACC-257
[48] = test system: SN12C
[49] = test system: NCI-H522
[50] = test system: MDA-MB-231
[51] = test system: HL-60
[52] = test system: RXF 393
[53] = test system: ACHN
[54] = test system: SK-MEL-28
[55] = test system: OVCAR-4
[56] = test system: NCI/ADR-RES
[57] = test system: EKVX
[58] = test system: MDA-N

Which results are given for COc1cc2c(/C=C3/C(=O)Nc4ccc(Cl)cc43)c(Cl)n(Cc3ccccc3)c2cc1C?
GI50 [1]: 2.72 µM (inactive); GI50 [2]: 4.19 µM (inactive); GI50 [3]: 3.08 µM (inactive); GI50 [4]: 2.97 µM (inactive); GI50 [5]: 6.73 µM (inactive); GI50 [6]: 1.8 µM (inactive); GI50 [7]: 3.81 µM (inactive); GI50 [8]: 2.65 µM (inactive); GI50 [9]: 2.51 µM (inactive); GI50 [10]: 3.14 µM (inactive); GI50 [11]: 2.26 µM (inactive); GI50 [12]: 2.04 µM (inactive); GI50 [13]: 3.57 µM (inactive); GI50 [14]: 2.89 µM (inactive); GI50 [15]: 4.56 µM (inactive); GI50 [16]: 2.22 µM (inactive); GI50 [17]: 2.51 µM (inactive); GI50 [18]: 7.85 µM (inactive); GI50 [19]: 2.33 µM (inactive); GI50 [20]: 1.98 µM (inactive); GI50 [21]: 2.11 µM (inactive); GI50 [22]: 2.84 µM (inactive); GI50 [23]: 3.27 µM (inactive); GI50 [24]: 3.29 µM (inactive); GI50 [25]: 5.51 µM (inactive); GI50 [26]: 5 µM (inactive); GI50 [27]: 2.43 µM (inactive); GI50 [28]: 8.26 µM (inactive); GI50 [29]: 2.3 µM (inactive); GI50 [30]: 6.19 µM (inactive); GI50 [31]: 3.32 µM (inactive); GI50 [32]: 6.21 µM (inactive); GI50 [33]: 2.81 µM (inactive); GI50 [34]: 2.59 µM (inactive); GI50 [35]: 3.3 µM (inactive); GI50 [36]: 1.74 µM (inactive); GI50 [37]: 3.9 µM (inactive); GI50 [38]: 2.41 µM (inactive); GI50 [39]: 3.1 µM (inactive); GI50 [40]: 2.51 µM (inactive); GI50 [41]: 2.59 µM (inactive); GI50 [42]: 2.94 µM (inactive); GI50 [43]: 5.89 µM (inactive); GI50 [44]: 2.81 µM (inactive); GI50 [45]: 4.01 µM; GI50 [46]: 3.17 µM (inactive); GI50 [47]: 6.34 µM (inactive); GI50 [48]: 2.59 µM (inactive); GI50 [49]: 3.18 µM (inactive); GI50 [50]: 2.48 µM (inactive); GI50 [51]: 3.93 µM (inactive); GI50 [52]: 2.31 µM (inactive); GI50 [53]: 2.41 µM (inactive); GI50 [54]: 2.39 µM (inactive); GI50 [55]: 1.95 µM (inactive); GI50 [56]: 3.86 µM (inactive)

Which results are given for N#Cc1cc(Sc2ccc(N)c(C#N)c2)ccc1N?
GI50 [2]: 11.9 µM (inactive); GI50 [3]: 14.8 µM (inactive); GI50 [5]: 13.3 µM (inactive); GI50 [6]: 65.6 µM (inactive); GI50 [7]: 12.1 µM (inactive); GI50 [8]: 43.8 µM (inactive); GI50 [9]: 17.7 µM (inactive); GI50 [10]: 3.44 µM (inactive); GI50 [11]: 25.4 µM (inactive); GI50 [13]: 15.8 µM (inactive); GI50 [14]: 9.64 µM (inactive); GI50 [15]: 12.6 µM (inactive); GI50 [16]: 2.8 µM (inactive); GI50 [17]: 29.3 µM (inactive); GI50 [18]: 19 µM (inactive); GI50 [19]: 8.63 µM (inactive); GI50 [20]: 34.7 µM (inactive); GI50 [21]: 41.9 µM (inactive); GI50 [23]: 29.9 µM (inactive); GI50 [57]: 16 µM (inactive); GI50 [24]: 25.1 µM (inactive); GI50 [25]: 21.7 µM (inactive); GI50 [26]: 15.8 µM (inactive); GI50 [27]: 2.55 µM (inactive); GI50 [28]: 13.6 µM (inactive); GI50 [29]: 29.3 µM (inactive); GI50 [30]: 18 µM (inactive); GI50 [31]: 15.3 µM (inactive); GI50 [32]: 30.3 µM (inactive); GI50 [58]: 4.03 µM (inactive); GI50 [33]: 17.6 µM (inactive); GI50 [34]: 20.4 µM (inactive); GI50 [35]: 15.5 µM (inactive); GI50 [36]: 23.1 µM (inactive); GI50 [37]: 24.9 µM (inactive); GI50 [38]: 8.59 µM (inactive); GI50 [39]: 14.8 µM (inactive); GI50 [40]: 12.8 µM (inactive); GI50 [41]: 17.6 µM (inactive); GI50 [42]: 11.1 µM (inactive); GI50 [43]: 22.8 µM (inactive); GI50 [44]: 19.6 µM (inactive); GI50 [45]: 9.51 µM; GI50 [46]: 29 µM (inactive); GI50 [47]: 26.9 µM (inactive); GI50 [48]: 48.4 µM (inactive); GI50 [50]: 40.7 µM (inactive); GI50 [51]: 1.87 µM (inactive); GI50 [52]: 29.4 µM (inactive); GI50 [53]: 31.2 µM (inactive); GI50 [54]: 55.2 µM (inactive); GI50 [55]: 20.4 µM (inactive); GI50 [56]: 13.3 µM (inactive)
